Experimental data published in patent US10561656B2, “Organic compounds” (INTRA-CELLULAR THERAPIES, INC., priority 2011, dated 2020).

What was measured:
C57BL/6 mice = assay: Haloperidol-induced catalepsy model (bar grip test); assay type: in vivo; conditions: mouse, PO, haloperidol 3 mg/kg PO, step down latency
Excerpt: To evaluate the potential beneficial effects to motor defects present in schizophrenics treated with typical and atypical antipsychotic agents and in Parkinson's disease patients, the compounds of the invention may be tested in a reversal of catalepsy model in which motor freezing, or catalepsy, is induced by potent dopamine D2 receptor antagonists such as haloperidol or risperidone. The method uses the “bar grip test”, in which the front paws of the mouse are placed so as to grip a 3 mm-diameter, suspended wooden bar. A “step down latency” is measured by recording the time until the mouse removes its paws from the wooden bar to the floor surface. […]
A total of seventeen (17) eight week-old, male, C57BL/6 mice (Jackson Laboratories) are used in a typical experiment testing the effect of the compound of Example 1 or 2. […] A catalepsy score is recorded for each mouse at 2, 3, 4 and 6 hours after administration of drugs. […] The latency until the mouse steps both paws down from the bar to the floor surface (i.e., step down latency) is recorded up to 120 sec. […] If none of the 10 attempts are beyond 10 sec, the longest duration recorded is used as the catalepsy score. Otherwise, the initial cataleptic duration (>10 sec) is recorded during the 120 sec testing time. Mean step down latency is calculated for each treatment group. […]

[1] = biological target: recombinant full length human PDE1B (r-hPDE1B) (Homo sapiens (Human), UniProt Q01064); assay: IMAP phosphodiesterase assay, r-hPDE1B; assay type: biochemical; conditions: IMAP fluorescence polarization, FL-GMP substrate
Excerpt: (§1) Phosphodiesterase 1B (PDE1B) is a calcium/calmodulin dependent phosphodiesterase enzyme that converts cyclic guanosine monophosphate (cGMP) to 5′-guanosine monophosphate (5′-GMP). PDE1B can also convert a modified cGMP substrate, such as the fluorescent molecule cGMP-fluorescein, to the corresponding GMP-fluorescein. The generation of GMP-fluorescein from cGMP-fluorescein can be quantitated, using, for example, the IMAP (Molecular Devices, Sunnyvale, Calif.) immobilized-metal affinity particle reagent.
(§2) Briefly, the IMAP reagent binds with high affinity to the free 5′-phosphate that is found in GMP-fluorescein and not in cGMP-fluorescein. The resulting GMP-fluorescein—IMAP complex is large relative to cGMP-fluorescein. Small fluorophores that are bound up in a large, slowly tumbling, complex can be distinguished from unbound fluorophores, because the photons emitted as they fluoresce retain the same polarity as the photons used to excite the fluorescence.
(§3) In the phosphodiesterase assay, cGMP-fluorescein, which cannot be bound to IMAP, and therefore retains little fluorescence polarization, is converted to GMP-fluorescein, which, when bound to IMAP, yields a large increase in fluorescence polarization (Δmp) Inhibition of phosphodiesterase, therefore, is detected as a decrease in Δmp.
Materials: All chemicals are available from Sigma-Aldrich (St. Louis, Mo.) except for IMAP reagents (reaction buffer, binding buffer, FL-GMP and IMAP beads), which are available from Molecular Devices (Sunnyvale, Calif.). […]
(§4) The FL-GMP conversion reaction is initiated by combining 4 parts enzyme and inhibitor mix with 1 part substrate solution (0.225 μM) in a 384-well microtiter plate. […] The plate is incubated at room temperature for 1 hour to allow IMAP binding to proceed to completion, and then placed in an Envision multimode microplate reader (PerkinElmer, Shelton, Conn.) to measure the fluorescence polarization (Δmp).
(§5) A decrease in GMP concentration, measured as decreased Δmp, is indicative of inhibition of PDE activity.

[2] = biological target: recombinant full length human PDE1A (r-hPDE1A) (Homo sapiens (Human), UniProt P54750); assay: IMAP phosphodiesterase assay, r-hPDE1A; assay type: biochemical; conditions: IMAP fluorescence polarization, FL-GMP substrate
Excerpt: as §1, §2, §3
Materials: All chemicals are available from Sigma-Aldrich (St. Louis, Mo.) except for IMAP reagents (reaction buffer, binding buffer, FL-GMP and IMAP beads), which are available from Molecular Devices (Sunnyvale, Calif.).
Assay: The following phosphodiesterase enzymes may be used: 3′,5′-cyclic-nucleotide-specific bovine brain phosphodiesterase (Sigma, St. Louis, Mo.) (predominantly PDE1B) and recombinant full length human PDE1A and PDE1B (r-hPDE1A and r-hPDE1B respectively) which may be produced e.g., in HEK or SF9 cells by one skilled in the art. The PDE1 enzyme is reconstituted with 50% glycerol to 2.5 U/ml. One unit of enzyme will hydrolyze 1.0 μmole of 3′,5′-cAMP to 5′-AMP per min at pH 7.5 at 30° C. One part enzyme is added to 1999 parts reaction buffer (30 μM CaCl2, 10 U/ml of calmodulin (Sigma P2277), 10 mM Tris-HCl pH 7.2, 10 mM MgCl2, 0.1% BSA, 0.05% NaN3) to yield a final concentration of 1.25 mU/ml. […]
as §4, §5

rats = assay: Novel Object Recognition (NOR) assay; assay type: in vivo; conditions: rat, 0.3 mg/Kg PO, dosed 2 hours before T1, p<0.01
Excerpt: To measure the cognition-enhancing effects of the compounds of the invention, the candidate compounds may be evaluated in a Novel Object Recognition (NOR) assay. This assay protocol is described in detail in Ennaceur et al., Behav. Brain Res. (1988) 31:47-59 and Prickaerts et al., Eur. J. Pharmacol. (1997) 337:125-136, the contents of each of which are incorporated by reference in their entirety. In this protocol, the rats are introduced to a chamber at time T1 and allowed to interrogate two identical “familiar objects” for six minutes. Twenty four hours later, they are re-introduced to this chamber, where one of the familiar objects has been replaced with a novel object. The “discrimination index”, a measure of the time spent in close proximity to the novel over the familiar object, may then be measured. Since rodents will forget the original experience at T1 within 4 hours, this test with a 24 h interval is a measure of strong cognitive enhancement.
This assay protocol can be modified in order to evaluate different phases of memory. There are three general phases of memory, namely, acquisition, consolidation and retrieval. In this modified protocol, the rats may be dosed with the candidate compound two hours before T1 and tested 24 h later, without additional dosing. This is a test of the acquisition process. […]

Structure (SMILES)	minimal dose active in catalepsy model (C57BL/6 mice) [mg/kg]	IC50 [1] [nM]	IC50 [2] [nM]	activity versus vehicle in Novel Object Recognition (rats)
CCSc1c2c(nn1Cc1ccc(-c3cccc(F)n3)cc1)N1CC(C)(C)N=C1N(C)C2=O [Example 2, 3-(ethylthio)-2-(4-(6-fluoropyridin-2-yl)benzyl)-5,7,7-trimethyl-7,8-dihydro-2H-imidazo[1,2-a]pyrazolo[4,3-e]pyrimidin-4(5H)-one]	< 0.1	4000	1	
CCSc1c2c(nn1Cc1ccc(-c3cccc(F)n3)cc1)N1C(=N[C@@H]3CCC[C@@H]31)N(C)C2=O [Example 3-A, (6aR,9aS)-5,6a,7,8,9,9a-hexahydro-5-methyl-3-(ethylthio)-2-(4-(6-fluoropyridin-2-yl)benzyl)-cyclopent[4,5]imidazo[1,2-a]pyrazolo[4,3-e]pyrimidin-4(2H)-one]		27000	1.5	
CCSc1c2c(nn1Cc1ccc(-c3ccc(F)cn3)cc1)N1CC(C)(C)N=C1N(C)C2=O [Example 1, 3-(ethylthio)-2-(4-(5-fluoropyridin-2-yl)benzyl)-5,7,7-trimethyl-7,8-dihydro-2H-imidazo[1,2-a]pyrazolo[4,3-e]pyrimidin-4(5H)-one]	< 0.1	11000	2.7	active versus vehicle
CC(C)Sc1c2c(nn1Cc1ccc(-c3cccc(F)n3)cc1)N1C(=N[C@@H]3CCC[C@@H]31)N(C)C2=O [Example 3-B, (6aR,9aS)-5,6a,7,8,9,9a-hexahydro-5-methyl-3-(isopropylthio)-2-(4-(6-fluoropyridin-2-yl)benzyl)-cyclopent[4,5]imidazo[1,2-a]pyrazolo[4,3-e]pyrimidin-4(2H)-one]			6	
